Measured values: ChEMBL document CHEMBL1139163, “Discovery and initial SAR of 3-(1H-benzo[d]imidazol-2-yl)pyridin-2(1H)-ones as inhibitors of insulin-like growth factor 1-receptor (IGF-1R)” (Bioorg Med Chem Lett, 2007)

What was measured:
HT-29 = assay: Cytotoxicity against HT29 cells by MTT assay; format: functional, Homo sapiens
[1] = biological target: Insulin-like growth factor 1 receptor (Homo sapiens, UniProt P08069); assay: Inhibition of human recombinant IGF1 receptor
Insulin-like growth factor 1 receptor, sequence (P08069 31-736 limits assumed): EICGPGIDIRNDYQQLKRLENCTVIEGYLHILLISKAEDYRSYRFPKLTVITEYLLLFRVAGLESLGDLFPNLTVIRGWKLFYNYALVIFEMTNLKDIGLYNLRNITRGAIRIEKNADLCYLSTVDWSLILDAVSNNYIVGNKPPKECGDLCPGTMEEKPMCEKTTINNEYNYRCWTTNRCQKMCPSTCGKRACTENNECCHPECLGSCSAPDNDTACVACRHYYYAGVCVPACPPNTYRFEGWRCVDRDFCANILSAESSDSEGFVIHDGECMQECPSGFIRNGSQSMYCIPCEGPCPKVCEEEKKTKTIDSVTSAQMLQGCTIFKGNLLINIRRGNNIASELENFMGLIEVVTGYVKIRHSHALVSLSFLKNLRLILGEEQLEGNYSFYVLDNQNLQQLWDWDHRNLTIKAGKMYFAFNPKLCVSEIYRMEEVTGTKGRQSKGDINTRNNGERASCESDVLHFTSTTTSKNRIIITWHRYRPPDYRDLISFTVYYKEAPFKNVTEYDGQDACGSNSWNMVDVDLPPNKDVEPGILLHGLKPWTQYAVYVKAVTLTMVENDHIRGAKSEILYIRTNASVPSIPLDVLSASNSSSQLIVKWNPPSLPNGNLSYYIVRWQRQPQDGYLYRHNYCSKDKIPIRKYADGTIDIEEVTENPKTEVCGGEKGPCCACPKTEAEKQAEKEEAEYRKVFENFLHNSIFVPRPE
Insulin-like growth factor 1 receptor, sequence (P08069 741-1367 limits assumed): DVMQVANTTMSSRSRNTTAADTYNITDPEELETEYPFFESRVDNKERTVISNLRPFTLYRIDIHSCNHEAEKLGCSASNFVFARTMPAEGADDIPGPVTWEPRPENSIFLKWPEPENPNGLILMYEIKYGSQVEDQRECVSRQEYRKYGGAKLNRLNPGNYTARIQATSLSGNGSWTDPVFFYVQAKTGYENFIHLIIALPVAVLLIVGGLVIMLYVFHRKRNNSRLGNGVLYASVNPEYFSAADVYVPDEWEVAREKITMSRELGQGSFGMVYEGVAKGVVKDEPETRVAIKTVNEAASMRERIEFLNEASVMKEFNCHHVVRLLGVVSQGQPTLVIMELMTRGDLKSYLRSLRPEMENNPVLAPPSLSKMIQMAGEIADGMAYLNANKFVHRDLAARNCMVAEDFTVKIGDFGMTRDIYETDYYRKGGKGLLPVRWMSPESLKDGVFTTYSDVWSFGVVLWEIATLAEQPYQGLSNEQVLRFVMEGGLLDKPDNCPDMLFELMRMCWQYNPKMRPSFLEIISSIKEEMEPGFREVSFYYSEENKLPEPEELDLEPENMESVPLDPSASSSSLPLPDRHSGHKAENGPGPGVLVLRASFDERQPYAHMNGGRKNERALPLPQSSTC

For `Cc1cc(-n2ccnc2)cc2[nH]c(-c3c(N[C@H](CO)Cc4ccccc4)cc[nH]c3=O)nc12`, the Activity (HT-29) was 0.78 µM and the IC50 [1] was 530 nM.
`O=c1[nH]cccc1-c1nc2cc(-n3ccnc3)cc(CNCc3cccnc3)c2[nH]1` was tested, and the IC50 [1] was over 25000 nM.
`CN(Cc1cc(-n2ccnc2)cc2[nH]c(-c3ccc[nH]c3=O)nc12)c1ccccc1` gave an IC50 [1] of over 25000 nM.
`Cc1cc(-n2ccnc2)cc2[nH]c(-c3c(N[C@H](CO)Cc4ccc(Cl)cc4)cc[nH]c3=O)nc12` was tested, and the IC50 [1] was 5400 nM.
For `Cc1cc(-n2ccnc2)cc2[nH]c(-c3c(N[C@H](CO)Cc4cccc(Cl)c4)cc[nH]c3=O)nc12`, the Activity (HT-29) was 1.1 µM and the IC50 [1] was 730 nM.
For `COc1ccccc1C[C@@H](CO)Nc1cc[nH]c(=O)c1-c1nc2c(C)cc(-n3ccnc3)cc2[nH]1`, the Activity (HT-29) was 1.2 µM and the IC50 [1] was 570 nM.
Compound `Cc1cc(-n2ccnc2)cc2[nH]c(-c3c(N[C@H](CO)Cc4ccccc4Br)cc[nH]c3=O)nc12` has an Activity (HT-29) of 0.83 µM and an IC50 [1] of 290 nM.
`Cc1cc(-n2ccnc2)cc2nc(-c3c(N[C@H](CO)Cc4ccccn4)cc[nH]c3=O)[nH]c12` gave an IC50 [1] of 4800 nM.
For `COc1ccc(C[C@@H](CO)Nc2cc[nH]c(=O)c2-c2nc3c(C)cc(-n4ccnc4)cc3[nH]2)cc1`, the IC50 [1] was 3100 nM.
In the case of `Cc1cc(-n2ccnc2)cc2[nH]c(-c3c(N[C@H](CO)Cc4ccccc4OC(F)(F)F)cc[nH]c3=O)nc12`, the IC50 [1] is reported as 1300 nM.
`Cc1cc(-n2ccnc2)cc2[nH]c(-c3c(SCc4ccccn4)cc[nH]c3=O)nc12` showed an IC50 [1] of over 25000 nM.
`Cc1cc(-n2ccnc2)cc2[nH]c(-c3c(NCc4ccncc4)cc[nH]c3=O)nc12` was tested, and the IC50 [1] was over 25000 nM.
`Cc1cc(-n2ccnc2)cc2[nH]c(-c3c(NCc4cccs4)cc[nH]c3=O)nc12` showed an IC50 [1] of 5300 nM.
In the case of `Cc1cc(-n2ccnc2)cc2[nH]c(-c3c(N[C@H](CO)Cc4ccc(OC(C)(C)C)cc4)cc[nH]c3=O)nc12`, the IC50 [1] is reported as 1700 nM.
With `Cc1cc(-n2ccnc2)cc2nc(-c3c(NCCn4nccn4)cc[nH]c3=O)[nH]c12` the IC50 [1] was 2500 nM.
With `NCc1cc(-n2ccnc2)cc2nc(-c3ccc[nH]c3=O)[nH]c12` the IC50 [1] was over 25000 nM.
For `CNCc1cc(-n2ccnc2)cc2nc(-c3ccc[nH]c3=O)[nH]c12`, the IC50 [1] was over 25000 nM.
In the case of `CCN(Cc1cc(-n2ccnc2)cc2[nH]c(-c3ccc[nH]c3=O)nc12)c1ncc[nH]1`, the IC50 [1] is reported as 13000 nM.
`O=c1[nH]cccc1-c1nc2c(CNCc3ccccc3)cc(-n3ccnc3)cc2[nH]1` gave an IC50 [1] of over 25000 nM.
For `Cc1cc(-n2ccnc2)cc2[nH]c(-c3c(N[C@H](CO)Cc4cccc(Br)c4)cc[nH]c3=O)nc12`, the Activity (HT-29) was 1.3 µM and the IC50 [1] was 590 nM.
`Cc1cc(-n2ccnc2)cc2[nH]c(-c3c(N[C@H](CO)Cc4cccc(F)c4)cc[nH]c3=O)nc12` gave an Activity (HT-29) of 2.1 µM and an IC50 [1] of 590 nM.
In the case of `Cc1cc(-n2ccnc2)cc2[nH]c(-c3c(N[C@H](CO)Cc4ccccc4Cl)cc[nH]c3=O)nc12`, the IC50 [1] is reported as 860 nM.
In the case of `Cc1ccccc1C[C@@H](CO)Nc1cc[nH]c(=O)c1-c1nc2c(C)cc(-n3ccnc3)cc2[nH]1`, the IC50 [1] is reported as 530 nM.
`Cc1cc(-n2ccnc2)cc2nc(-c3c(NCc4cccnc4)cc[nH]c3=O)[nH]c12` showed an IC50 [1] of 14000 nM.
Compound `Cc1cc(-n2ccnc2)cc2nc(-c3c(NCc4ccco4)cc[nH]c3=O)[nH]c12` has an IC50 [1] of 3000 nM.
With `Cc1cc(-n2ccnc2)cc2[nH]c(-c3c(N[C@H](CO)Cc4cccc([N+](=O)[O-])c4)cc[nH]c3=O)nc12` the IC50 [1] was 3300 nM.
`O=c1[nH]cccc1-c1nc2c(CN3CCNCC3)cc(-n3ccnc3)cc2[nH]1` showed an IC50 [1] of over 25000 nM.
In the case of `Cc1cc(-n2ccnc2)cc2[nH]c(-c3c(N[C@H](CO)Cc4ccc(F)cc4)cc[nH]c3=O)nc12`, the IC50 [1] is reported as 1400 nM.
With `Cc1cc(-n2ccnc2)cc2nc(-c3c(NCc4ccccn4)cc[nH]c3=O)[nH]c12` the Activity (HT-29) was 7.6 µM.
In the case of `Cc1cc(-n2ccnc2)cc2[nH]c(-c3c(N[C@H](CO)Cc4ccccc4C#N)cc[nH]c3=O)nc12`, the IC50 [1] is reported as 2200 nM.
Compound `Cc1cc(-n2ccnc2)cc2[nH]c(-c3c(OCc4ccccn4)cc[nH]c3=O)nc12` has an IC50 [1] of over 25000 nM.
`COc1cccc(C[C@@H](CO)Nc2cc[nH]c(=O)c2-c2nc3c(C)cc(-n4ccnc4)cc3[nH]2)c1` was tested, and the Activity (HT-29) was 1.6 µM and the IC50 [1] was 660 nM.
`Cc1cc(-n2ccnc2)cc2[nH]c(-c3c(NCCc4cccs4)cc[nH]c3=O)nc12` was tested, and the IC50 [1] was 2100 nM.
With `Cc1cc(-n2ccnc2)cc2[nH]c(-c3c(N[C@H](CO)Cc4cccc(C(F)(F)F)c4)cc[nH]c3=O)nc12` the IC50 [1] was 3500 nM.
